The test system of assay [1] is phase 2 genes. The note with it: cited from earlier work.
The test system of assay [2] is T/C28a2 cells. Nature of the assay: Shear-induced apoptosis: DNA fragmentation (TUNEL) and mitochondrial membrane depolarization. Type of assay: cell-based, human. The note with it: 20 dyn/cm^2, 48 h; D3T 5 μM, CAY10404 6.75 μM, NS398 30 μM. On the procedure: (§1) Cell Culture and Shear Stress Exposure: Human T/C28a2 chondrocytic cells were grown (37° C., 5% CO2) in 1:1 Ham's F-12/DMEM (Biowhittaker) supplemented with 10% FBS. Prior to shear exposure, T/C28a2 cells were incubated for 24 hours in serum-free medium containing 1% Nutridoma-SP (Roche), a low-protein serum replacement that maintains chondrocyte phenotype. Primary HUVECs were cultured as described (Goldring, M. B., 2004). T/C28a2 cells were exposed to shear stress in media containing 1% Nutridoma by use of a parallel-plate flow chamber with a recirculating flow loop (37° C., 5% CO2) (10). HUVECs were treated similarly by circulating media supplemented with 10% FBS.
DNA Fragmentation and Mitochondrial Depolarization: For DNA fragmentation, cells were fixed in 4% paraformaldehyde for 1 hour at 25° C., washed 2× in PBS, and permeabilized briefly in 0.1% Triton-X100/0.1% sodium citrate on ice. Subsequently, cells were washed 2× in PBS, labeled using the In Situ Cell Death Kit (Roche), and analyzed by flow cytometry. To quantify Mitochondrial Membrane Potential (MMP), cells were labeled using the MitoProbe JC-I Kit (Molecular Probes).

Assay [3] relates to NQO1. Description: NQO1 enzyme activity in shear-activated chondrocytes. The format is cell-based, human. The following applies: T/C28a2, high shear (20 dyn/cm^2); SFN 1.25 μM, D3T 5 μM, CAY10404 6.75 μM, NS398 30 μM. On the procedure:
as §1
(§2) Cell Viability, NQO1 activity, Glutathione levels, and Prostaglandin (PG)E2 production: Cell viability was monitored with the MTT assay (Gao, X. et al. 2001). NQO1 activity and total GSH (oxidized and reduced) levels of cell lysates were determined in 96-well microtiter plates. PGE2 levels were determined in media by the Prostaglandin E2 monoclonal EIA kit (Cayman Chemical).

The subject of assay [4] is T/C28a2 cells. Description: Total glutathione (GSH) levels in shear-activated chondrocytes. Type of assay: cell-based, human. The note with it: T/C28a2, high shear (20 dyn/cm^2); SFN 1.25 μM, CAY10404 6.75 μM, NS398 30 μM. The procedure:
as §1, §2

Assay [5] relates to T/C28a2 chondrocytic cells. Description: DNA microarray analysis of shear-induced mRNA response of chondrocytes. The format is cell-based, human. The following applies: Wy14643 10 μM; 20 dyn/cm^2, 48 hours; cDNA microarray. The procedure: as §1
Microarray Hybridization and Analysis: Cy-3- and Cy-5-labeled probes were mixed, dried, resuspended in hybridization buffer (50% formamide, 10×SSC, 0.2% SDS, COT-I DNA, Poly(A)-DNA), and denatured. The probes were added to microarray slides printed with a set of 32,448 or 39,936 expressed sequence tags (ESTs), allowed to hybridize at 42° C. overnight, and processed as described (Abulencia, J. P., et al. 2003. Hegde, P. et al. 2000). Expression ratios were derived using TIGR Spotfinder (Abulencia, J. P. et al. 2003, Hegde, P. et al. 2000). Differentially expressed genes were identified by Significance Analysis of Microarrays, and analyzed with the software TMEV (Abulencia, J. P. et al. 2003).
(§3) Quantitative Real-Time PCR (qRT-PCR) was used to verify DNA microarray data. Incorporation of SYBR Green into PCR products was monitored with the 7900HT detection system.

In assay [6] the test system is T/C-28a2 cells. Description: qRT-PCR transcript ratios (shear/static) in chondrocytes. The format is cell-based, human. On the procedure:
as §1, §3
Cell Culture and shear stress exposure, microarray hybridization and analysis and quantitative real-time PCR (qRT-PCR) were carried out as in example 1. T/C-28a2 chondrocytes were pre-treated with a specific PPARα ligand, Wy14643 (10 μM) for 2 hours before being subjected to a shear stress level of 20 dyn/cm^2 for 48 hours in the presence of Wy14643. This pharmacological intervention abolished the shear-induced down regulation of the mRNA levels of Nrf2 and phase 2 genes and apoptosis as evidenced by the abrogation of shear-mediated changes of Bcl-w and pro-caspase-9 mRNA expression.
On the technique in general: Real-time PCR tracks product formation cycle by cycle.

[7] abbreviates: Wy14643 10 μM pre-treatment, 20 dyn/cm^2, 48 h, mean + range (n = 2).

SMILES strings stand for the structures.

Take `COc1ccccc1N=C=S` [GHP 1031]: in assay [1], the CD was 100 µM.
Regarding `CS(=O)(=O)Nc1ccc([N+](=O)[O-])cc1OC1CCCCC1` [NS398], the “shear-induced apoptosis (DNA fragmentation TUNEL, mitochondrial membrane depolarization MMP)” value in assay [2] is recorded as “marked reduction”. The “shear-induced suppression of NQO1 activity” value in assay [3] is “indistinguishable from those with CAY10404”. The “shear-induced suppression of intracellular GSH levels” value in assay [4] is “indistinguishable from those with CAY10404”.
For the compound `CC(O)CCCCN=C=S` (stereo not drawn) [GHP 1106], in assay [1], the CD is 0.35 µM.
As to `CCCCC(=O)CCCCN=C=S` [GHP 1081], the CD in assay [1] was 2.0 µM.
On to `CCc1ccccc1CN=C=S` [GHP 1053], for which the CD in assay [1] was 12.5 µM.
For the compound `COc1ccc(CN=C=S)cc1` [GHP 1043], the CD in assay [1] was 25 µM.
`CS(=O)(=O)[C@H]1CC[C@@H](N=C=S)CC1` [GHF 1073]: the CD in assay [1] is 0.44 µM.
On to `CS(=O)(=O)C1CC2CC(N=C=S)C1C2` (stereo not drawn) [GHP 1068], for which, in assay [1], the CD is 0.15 µM.
For `O=CNc1ccc(N=C=S)cc1` [GHP 1033], the CD in assay [1] is 100 µM.
Turning to `OC1CC2CC(N=C=S)C1C2` (stereo not drawn) [GHP 1076], the CD in assay [1] is 1.10 µM.
In the case of `CSCCc1ccccc1N=C=S` [GHP 1023], the CD in assay [1] was 100 µM.
As for `CS(=O)(=O)[C@H]1CCC[C@@H](CN=C=S)C1` [GHP 1080], in assay [1], the CD is 0.41 µM.
On to `N#CC1CC2CC1CC2N=C=S` (stereo not drawn) [GHP 1071], for which the CD in assay [1] was 0.59 µM.
Consider `CC(=O)CCCCN=C=S` [GHP 1105], for which, in assay [1], the CD is 0.23 µM.
In the case of `Cc1ccccc1CN=C=S` [GHP 1050], the CD in assay [1] is 3.7 µM.
`CC(=O)C1CC2CC(N=C=S)C1C2` (stereo not drawn) [GHP 1066]: the CD in assay [1] is 0.26 µM.
Take `CSCc1ccccc1CN=C=S` [GHP 1021]: in assay [1], the CD is 4.3 µM.
Turning to `C[S+]([O-])CCCCCN=C=S` (stereo not drawn) [GHP 1002], in assay [1], the CD is 0.94 µM.
Turning to `CS(=O)(=O)CCCCCN=C=S` [GHP 1003], the CD in assay [1] is 0.98 µM.
For the compound `S=C=NCc1ccccc1Br` [GHP 1049], the CD in assay [1] was 12.5 µM.
As for `COC(=O)CCCCN=C=S` [GHP 1102], the CD in assay [1] is 2.81 µM.
With `S=C=Nc1ccccc1Cl` [GHP 1032], the CD in assay [1] was 100 µM.
Regarding `CS(=O)(=O)CCCCN=C=S` [GHP 1007], the CD in assay [1] is 0.82 µM.
Consider `CS(=O)(=O)CCCN=C=S` [GHP 1010], for which, in assay [1], the CD was 1.32 µM.
As for `CSCCCN=C=S` [GHP 1008], the CD in assay [1] was 3.52 µM.
With `COc1cccc(CN=C=S)c1` [GHP 1042], in assay [1], the CD is 8.65 µM.
`CS(=O)(=O)[C@H]1CCC[C@H](CN=C=S)C1` [GHP 1079]: in assay [1], the CD was 0.48 µM.
For `CS(=O)(=O)c1ccc(-c2noc(C(F)(F)F)c2-c2ccccc2)cc1` [CAY10404], the “shear-induced apoptosis (DNA fragmentation TUNEL, mitochondrial membrane depolarization MMP)” value in assay [2] is “marked reduction”. Moreover, in assay [3], the “shear-induced suppression of NQO1 activity” value is “reduced the shear-induced down-regulation”. Moreover, the “shear-induced suppression of intracellular GSH levels” value in assay [4] is “reduced the shear-induced down-regulation”.
In the case of `N#CCCCCN=C=S` [GHP 1101], the CD in assay [1] was 1.97 µM.
On to `O=C(O)CCCCN=C=S` [GHP 1103], for which the CD in assay [1] was 2.19 µM.
With `COc1cccc(OC)c1CN=C=S` [GHP 1044], the CD in assay [1] is 5.8 µM.
On to `C[S+]([O-])CCCCN=C=S` (stereo not drawn) [GHP 1005], for which the CD in assay [1] was 0.20 µM.
`CSCCCCCN=C=S` [GHP 1001]: in assay [1], the CD was 1.71 µM.
As for `Fc1ccccc1CN=C=S` [GHP 1047], the CD in assay [1] was 13.1 µM.
`CC(=O)C1CC2CC1CC2N=C=S` (stereo not drawn) [GHP 1067]: in assay [1], the CD was 0.43 µM.
On to `S=C=NC1CCc2ccccc21` (stereo not drawn) [GHP 1052], for which the CD in assay [1] is 38.9 µM.
Take `CN(C)c1ccccc1CN=C=S` [GHP 1045]: the CD in assay [1] is 12.5 µM.
Turning to `CC(O)C1CC2CC1CC2N=C=S` (stereo not drawn) [GHP 1075], the CD in assay [1] is 0.45 µM.
As for `CCOC(=O)CN=C=S` [GHP 1061], in assay [1], the CD was 8.2 µM.
`COc1ccccc1CN=C=S` [GHP 1041]: in assay [1], the CD was 2.41 µM.
Turning to `C[S+]([O-])CCCN=C=S` (stereo not drawn) [GHP 1009], the CD in assay [1] is 2.36 µM.
`OC1CC2CC1CC2N=C=S` (stereo not drawn) [GHP 1077]: the CD in assay [1] was 1.85 µM.
With `COC(=O)C1CC2CC(N=C=S)C1C2` (stereo not drawn) [GHP 1070], in assay [1], the CD was 1.6 µM.
`CSC(=O)CCCCN=C=S` [GHP 1104]: in assay [1], the CD was 2.8 µM.
With `CS(=O)(=O)C1CC2CC1CC2N=C=S` (stereo not drawn) [GHP 1064], the CD in assay [1] is 0.66 µM.
For the compound `Cc1cccc(Nc2cc(Cl)nc(SCC(=O)O)n2)c1C` [Wy14643], in assay [5], the “shear-mediated up-regulation of JNK2 mRNA levels” value was “nearly abrogates” and the “shear-mediated up-regulation of c-Jun mRNA levels” value was “nearly abrogates”. Further, in assay [6] (setting [7]), the “Bcl-w (Bcl-2-like protein 2) qRT-PCR Transcript Ratio (Shear/Static)” value came to 1.0 ± 0.1, the “COX-2 (cyclooxygenase-2) qRT-PCR Transcript Ratio (Shear/Static)” value was determined as 1.3 ± 0.2, the “Caspase-9 precursor qRT-PCR Transcript Ratio (Shear/Static)” value came out at 1.0 ± 0.1 and the “GCLR (glutamate-cysteine ligase) qRT-PCR Transcript Ratio (Shear/Static)” value was found to be 1.2 ± 0.2. For the same compound, in assay [6] (setting [7]), the “GST μ1 (glutathione-S-transferase class μ1) qRT-PCR Transcript Ratio (Shear/Static)” value was 1.3 ± 0.2, the “MMP-9 (matrix metalloproteinase-9) qRT-PCR Transcript Ratio (Shear/Static)” value is reported as 1.3 ± 0.1, the “NQO1 (NAD(P)H:quinone oxidoreductase-1) qRT-PCR Transcript Ratio (Shear/Static)” value was 1.0 ± 0.1 and the “Nrf2 (NF-E2 related factor 2) qRT-PCR Transcript Ratio (Shear/Static)” value is 1.6 ± 0.1. Further, in assay [6] (setting [7]), the “PGE2 Receptor Subtype EP4 qRT-PCR Transcript Ratio (Shear/Static)” value came out at 0.6 ± 0.1, the “PPARα qRT-PCR Transcript Ratio (Shear/Static)” value amounted to 1.1 ± 0.2 and the “iNOS (inducible Nitric Oxide Synthase II) qRT-PCR Transcript Ratio (Shear/Static)” value was found to be 1.0 ± 0.2. In assay [6] (Wy14643 10 μM, 2 hours before and during 20 dyn/cm^2, 48 hours), the “shear-induced down regulation of the mRNA levels of Nrf2 and phase 2 genes” value is “abolished”. In addition, in assay [6] (Wy14643 10 μM, 20 dyn/cm^2, 48 hours), the “shear-mediated changes of Bcl-w and pro-caspase-9 mRNA expression (apoptosis)” value is “abrogation”.
In the case of `COC(=O)C1CC2CC(N=C=S)C1C2` (stereo not drawn) [GHP 1069], the CD in assay [1] was 0.68 µM.
For the compound `S=C=NCc1ccccc1Cl` [GHP 1048], in assay [1], the CD was 14.1 µM.
Take `O=[N+]([O-])C1CC2CC1CC2N=C=S` (stereo not drawn) [GHP 1072]: the CD in assay [1] was 1.05 µM.
`CSc1ccccc1CCN=C=S` [GHP 1022]: in assay [1], the CD is 7.4 µM.
Regarding `CSc1ccccc1CN=C=S` [GHP 1046], the CD in assay [1] is 6.8 µM.
In the case of `CCOC(=O)C(CCSC)N=C=S` (stereo not drawn) [GHP 1074], the CD in assay [1] was 2.64 µM.
For `CP(C)(=O)CCCCN=C=S` [GHP 1078], the CD in assay [1] was 0.43 µM.
Regarding `CCOc1ccccc1CN=C=S` [GHP 1051], in assay [1], the CD was 2.5 µM.

Values taken from US20160038485A1, “PHASE 2 INDUCERS AND RELATED SIGNALING PATHWAYS PROTECT CARTILAGE AGAINST INFLAMMATION, APOPTOSIS AND STRESS” (THE JOHNS HOPKINS UNIVERSITY, priority 2006, published 2016).
